PubChem BioAssay (NCI)
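96-well plates; 48 h exposure; 5 concentrations. Endpoints by linear interpolation between flanking doses. Not reached: highest tested concentration assigned. GI50 = concentration required for 50% inhibition of growth. Definition used: TGI = concentration required for complete inhibition of growth.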

Key:
Experiment in all cases: NCI-60 cell line screen, 48 h
786-0 renal = test system: 786-0 renal
RXF 393 renal = test system: RXF 393 renal
M14 melanoma = test system: M14 melanoma
SK-MEL-5 melanoma = test system: SK-MEL-5 melanoma
CCRF-CEM leukemia = test system: CCRF-CEM leukemia
NCI-H460 lung = test system: NCI-H460 lung
MDA-MB-435 = test system: MDA-MB-435
ACHN renal = test system: ACHN renal
UACC-62 melanoma = test system: UACC-62 melanoma
HCT-116 colon = test system: HCT-116 colon
SF-295 CNS = test system: SF-295 CNS
LOX IMVI melanoma = test system: LOX IMVI melanoma
KM12 colon = test system: KM12 colon
SK-OV-3 ovarian = test system: SK-OV-3 ovarian
SF-539 CNS = test system: SF-539 CNS
HOP-92 NSCLC = test system: HOP-92 NSCLC
EKVX NSCLC = test system: EKVX NSCLC
SW-620 colon = test system: SW-620 colon
SR leukemia = test system: SR leukemia
IGROV1 ovarian = test system: IGROV1 ovarian
MOLT-4 leukemia = test system: MOLT-4 leukemia
NCI-H23 lung = test system: NCI-H23 lung
MDA-N = test system: MDA-N
UO-31 renal = test system: UO-31 renal
DU-145 prostate = test system: DU-145 prostate
COLO 205 colon = test system: COLO 205 colon
HOP-62 NSCLC = test system: HOP-62 NSCLC
NCI-H226 lung = test system: NCI-H226 lung
HL-60(TB) leukemia = test system: HL-60(TB) leukemia
HS 578T breast = test system: HS 578T breast
SF-268 CNS = test system: SF-268 CNS
OVCAR-3 ovarian = test system: OVCAR-3 ovarian
PC-3 prostate = test system: PC-3 prostate
SN12C renal = test system: SN12C renal
RPMI-8226 leukemia = test system: RPMI-8226 leukemia
UACC-257 melanoma = test system: UACC-257 melanoma
MALME-3M melanoma = test system: MALME-3M melanoma
HCC-2998 colon = test system: HCC-2998 colon
T-47D breast = test system: T-47D breast
SNB-19 CNS = test system: SNB-19 CNS
NCI/ADR-RES ovarian = test system: NCI/ADR-RES ovarian
TK-10 renal = test system: TK-10 renal
OVCAR-5 ovarian = test system: OVCAR-5 ovarian
SNB-75 CNS = test system: SNB-75 CNS
K-562 leukemia = test system: K-562 leukemia
MDA-MB-231 breast = test system: MDA-MB-231 breast
A498 renal = test system: A498 renal
A549 NSCLC = test system: A549 NSCLC
OVCAR-8 ovarian = test system: OVCAR-8 ovarian
HT29 colon = test system: HT29 colon
SK-MEL-28 melanoma = test system: SK-MEL-28 melanoma
MCF7 breast = test system: MCF7 breast
NCI-H522 lung = test system: NCI-H522 lung
CAKI-1 renal = test system: CAKI-1 renal
OVCAR-4 ovarian = test system: OVCAR-4 ovarian
HCT-15 colon = test system: HCT-15 colon
U251 CNS = test system: U251 CNS
SK-MEL-2 melanoma = test system: SK-MEL-2 melanoma
BT-549 breast = test system: BT-549 breast

Structure (SMILES): CCCN(CCC)C(=O)c1c(Cl)c2cccnc2n2c(C)cnc12
- TGI (786-0 renal): > 100 µM
- TGI (RXF 393 renal): > 100 µM
- TGI (M14 melanoma): > 100 µM
- TGI (SK-MEL-5 melanoma): > 100 µM
- TGI (CCRF-CEM leukemia): > 100 µM
- TGI (NCI-H460 lung): > 100 µM
- TGI (MDA-MB-435): 85.3 µM
- TGI (ACHN renal): > 100 µM
- TGI (UACC-62 melanoma): > 100 µM
- TGI (HCT-116 colon): > 100 µM
- TGI (SF-295 CNS): > 100 µM
- TGI (LOX IMVI melanoma): > 100 µM
- TGI (KM12 colon): > 100 µM
- TGI (SK-OV-3 ovarian): > 100 µM
- TGI (SF-539 CNS): > 100 µM
- TGI (HOP-92 NSCLC): > 100 µM
- TGI (EKVX NSCLC): > 100 µM
- TGI (SW-620 colon): > 100 µM
- TGI (SR leukemia): > 100 µM
- TGI (IGROV1 ovarian): > 100 µM
- TGI (MOLT-4 leukemia): > 100 µM
- TGI (NCI-H23 lung): > 100 µM
- TGI (MDA-N): > 100 µM
- TGI (UO-31 renal): > 100 µM
- TGI (DU-145 prostate): > 100 µM
- TGI (COLO 205 colon): > 100 µM
- TGI (HOP-62 NSCLC): > 100 µM
- TGI (NCI-H226 lung): > 100 µM
- TGI (HL-60(TB) leukemia): 71.7 µM
- TGI (HS 578T breast): > 100 µM
- TGI (SF-268 CNS): > 100 µM
- TGI (OVCAR-3 ovarian): > 100 µM
- TGI (PC-3 prostate): 98.6 µM
- TGI (SN12C renal): > 100 µM
- TGI (RPMI-8226 leukemia): > 100 µM
- TGI (UACC-257 melanoma): > 100 µM
- TGI (MALME-3M melanoma): > 100 µM
- TGI (HCC-2998 colon): > 100 µM
- TGI (T-47D breast): > 100 µM
- TGI (SNB-19 CNS): > 100 µM
- TGI (NCI/ADR-RES ovarian): > 100 µM
- TGI (TK-10 renal): > 100 µM
- TGI (OVCAR-5 ovarian): > 100 µM
- TGI (SNB-75 CNS): > 100 µM
- TGI (K-562 leukemia): > 100 µM
- TGI (MDA-MB-231 breast): > 100 µM
- TGI (A498 renal): > 100 µM
- TGI (A549 NSCLC): > 100 µM
- TGI (OVCAR-8 ovarian): > 100 µM
- TGI (HT29 colon): > 100 µM
- TGI (SK-MEL-28 melanoma): > 100 µM
- TGI (MCF7 breast): > 100 µM
- TGI (NCI-H522 lung): > 100 µM
- TGI (CAKI-1 renal): 79.7 µM
- TGI (OVCAR-4 ovarian): > 100 µM

Structure (SMILES): O=C1OC(OC/C(Br)=C(/Br)COC2OC(=O)C(Cl)=C2Cl)C(Cl)=C1Cl (stereo not given)
- TGI (786-0 renal): 14.1 µM
- TGI (RXF 393 renal): 13.4 µM
- TGI (M14 melanoma): 17.3 µM
- TGI (SK-MEL-5 melanoma): 26.8 µM
- TGI (CCRF-CEM leukemia): 4.93 µM
- TGI (NCI-H460 lung): 39.4 µM
- TGI (MDA-MB-435): 24.2 µM
- TGI (ACHN renal): 24.8 µM
- TGI (UACC-62 melanoma): 29.1 µM
- TGI (HCT-116 colon): 10 µM
- TGI (SF-295 CNS): 34.2 µM
- TGI (LOX IMVI melanoma): 8.36 µM
- TGI (KM12 colon): 21.8 µM
- TGI (SK-OV-3 ovarian): > 55.8 µM
- TGI (SF-539 CNS): 36.7 µM
- TGI (HOP-92 NSCLC): 29.2 µM
- TGI (EKVX NSCLC): 32.2 µM
- TGI (SW-620 colon): 8.26 µM
- GI50 (SR leukemia): 1600 nM
- TGI (SR leukemia): 5.46 µM
- TGI (HCT-15 colon): 27.1 µM
- TGI (IGROV1 ovarian): 28.2 µM
- TGI (MOLT-4 leukemia): 5.44 µM
- TGI (U251 CNS): 24.2 µM
- TGI (NCI-H23 lung): 22.5 µM
- TGI (MDA-N): 21.5 µM
- TGI (UO-31 renal): 15.6 µM
- TGI (DU-145 prostate): 30.6 µM
- TGI (COLO 205 colon): 10.4 µM
- TGI (SK-MEL-2 melanoma): 44.8 µM
- TGI (HOP-62 NSCLC): 28.8 µM
- TGI (NCI-H226 lung): > 70.7 µM
- TGI (HL-60(TB) leukemia): 4.33 µM
- TGI (HS 578T breast): 64.7 µM
- TGI (SF-268 CNS): 35.5 µM
- TGI (OVCAR-3 ovarian): 14.6 µM
- TGI (PC-3 prostate): 30.2 µM
- TGI (SN12C renal): 22.6 µM
- TGI (RPMI-8226 leukemia): 5.19 µM
- TGI (UACC-257 melanoma): 25.5 µM
- TGI (MALME-3M melanoma): 21.2 µM
- TGI (HCC-2998 colon): 34.1 µM
- TGI (T-47D breast): 30.8 µM
- TGI (SNB-19 CNS): 37 µM
- TGI (NCI/ADR-RES ovarian): 36.9 µM
- TGI (TK-10 renal): 27 µM
- TGI (OVCAR-5 ovarian): 33 µM
- TGI (SNB-75 CNS): 36 µM
- TGI (K-562 leukemia): 5.85 µM
- TGI (MDA-MB-231 breast): 17 µM
- TGI (A498 renal): 38 µM
- TGI (A549 NSCLC): 48.9 µM
- TGI (OVCAR-8 ovarian): > 58 µM
- TGI (HT29 colon): 28.4 µM
- TGI (SK-MEL-28 melanoma): 23.3 µM
- TGI (MCF7 breast): 30.9 µM
- TGI (NCI-H522 lung): 4.53 µM
- TGI (CAKI-1 renal): 7.68 µM
- TGI (OVCAR-4 ovarian): 20.1 µM

Structure (SMILES): O=C1c2c(ccc3c2CCCC3)CC1Cc1ccc2c(c1)CCCC2 (stereo not given)
- TGI (786-0 renal): > 100 µM
- TGI (RXF 393 renal): 78.5 µM
- TGI (M14 melanoma): > 100 µM
- TGI (SK-MEL-5 melanoma): > 100 µM
- TGI (CCRF-CEM leukemia): 59.7 µM
- TGI (NCI-H460 lung): > 100 µM
- TGI (MDA-MB-435): > 100 µM
- TGI (ACHN renal): > 100 µM
- TGI (UACC-62 melanoma): > 100 µM
- TGI (HCT-116 colon): > 100 µM
- TGI (SF-295 CNS): > 100 µM
- TGI (LOX IMVI melanoma): > 100 µM
- TGI (KM12 colon): > 100 µM
- TGI (SK-OV-3 ovarian): > 100 µM
- TGI (SF-539 CNS): > 100 µM
- TGI (HOP-92 NSCLC): 83.6 µM
- TGI (EKVX NSCLC): > 100 µM
- TGI (SW-620 colon): > 100 µM
- TGI (SR leukemia): 67.6 µM
- TGI (HCT-15 colon): > 100 µM
- TGI (IGROV1 ovarian): > 100 µM
- TGI (MOLT-4 leukemia): > 100 µM
- TGI (U251 CNS): > 100 µM
- TGI (NCI-H23 lung): > 100 µM
- TGI (MDA-N): > 100 µM
- TGI (UO-31 renal): > 100 µM
- TGI (DU-145 prostate): > 100 µM
- TGI (COLO 205 colon): > 100 µM
- TGI (SK-MEL-2 melanoma): > 100 µM
- TGI (HOP-62 NSCLC): > 100 µM
- TGI (NCI-H226 lung): > 100 µM
- TGI (HL-60(TB) leukemia): 46.9 µM
- TGI (HS 578T breast): > 100 µM
- TGI (SF-268 CNS): > 100 µM
- TGI (OVCAR-3 ovarian): > 100 µM
- TGI (PC-3 prostate): > 100 µM
- TGI (SN12C renal): > 100 µM
- TGI (RPMI-8226 leukemia): > 100 µM
- TGI (BT-549 breast): > 100 µM
- TGI (UACC-257 melanoma): 71 µM
- TGI (MALME-3M melanoma): > 100 µM
- TGI (HCC-2998 colon): > 100 µM
- TGI (T-47D breast): 9.84 µM
- TGI (SNB-19 CNS): > 100 µM
- TGI (TK-10 renal): > 100 µM
- TGI (OVCAR-5 ovarian): > 100 µM
- TGI (SNB-75 CNS): > 100 µM
- TGI (K-562 leukemia): > 100 µM
- TGI (MDA-MB-231 breast): > 100 µM
- TGI (A498 renal): > 100 µM
- TGI (A549 NSCLC): > 100 µM
- TGI (OVCAR-8 ovarian): > 100 µM
- TGI (HT29 colon): > 100 µM
- TGI (SK-MEL-28 melanoma): > 100 µM
- TGI (MCF7 breast): > 100 µM
- TGI (OVCAR-4 ovarian): > 100 µM
